Laboratory results taken from US12122816B2, “Long acting peptide tyrosine tyrosine (PYY) analogs and methods of use” (Intarcia Therapeutics, Inc., priority 2020, dated 2024).
pEC50: −log10 of the molar value. Starred links: 1 amine or outer side, 2 acyl side, 3 side chain; linkers in the order of their positions; H or OH if unused. Positions of bridges follow the written chain, without caps; N, C: chain ends. Residues, ends and D or L forms follow the SMILES beside them. Groups on a side chain read outwards from the residue. *: point of attachment. C19 diacid = O=C(O)CCCCCCCCCCCCCCCCCC(=O)*; γGlu = O=C(O)[C@H](CCC(=O)[*:2])N[*:1]

Key:
[1] = Solubility in DI water at room temperature (visual inspection); assay type: physicochemical; conditions: TFA salt form
Protocol: The analog polypeptides described herein were tested for solubility in saline or in aqueous (DI water) at room temperature. Samples were visually inspected for clarity of the sample, any appearance of turbidity or haziness.

[2] = Stability in water or saline (1 mg/ml) at 37° C., purity by LC/MS and HPLC; assay type: physicochemical; conditions: TFA salt form
human Y1 receptor = molecular target: T1, human Y1 receptor (Homo sapiens, UniProt P25929); assay: NPY receptor functional assay (cAMP, HEK-CNG cells, ACTOne membrane potential dye); assay type: cell-based
T1 sequence (P25929 1-384): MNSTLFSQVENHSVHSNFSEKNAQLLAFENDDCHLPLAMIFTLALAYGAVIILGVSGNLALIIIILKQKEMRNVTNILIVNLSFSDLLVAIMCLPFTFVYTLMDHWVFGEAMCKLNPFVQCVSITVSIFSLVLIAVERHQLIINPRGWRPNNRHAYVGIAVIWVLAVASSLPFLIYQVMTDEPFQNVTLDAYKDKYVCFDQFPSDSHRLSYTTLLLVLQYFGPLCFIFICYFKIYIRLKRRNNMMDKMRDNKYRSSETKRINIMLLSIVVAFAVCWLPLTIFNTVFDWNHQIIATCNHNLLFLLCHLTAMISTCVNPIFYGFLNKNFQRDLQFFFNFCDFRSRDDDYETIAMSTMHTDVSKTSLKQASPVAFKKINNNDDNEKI
From the text: The NPY family of G-protein coupled receptors include Y1, Y2, Y4, and Y5 in humans and rats. […] Following agonist binding, the receptor-G protein complex activates a downstream intracellular signaling cascade which leads to inhibition of adenylate cyclase and a reduction in intracellular cAMP levels.
HEK-CNG cells stably expressing the human or rat Y1, Y2, Y4 or Y5 receptors (Codex Biosolutions) were used to characterize the functional potency of peptide agonists using the ActOne™ membrane potential dye kit (Codex Biosolutions). In addition to each NPY receptor, each cell line encodes a proprietary exogenous Cyclic Nucleotide-Gated (CNG) channel (Codex Biosolutions). The channel is activated by elevated intracellular levels of cAMP, resulting in ion flux and cell membrane depolarization which can be detected with a calcium sensitive dye or fluorescent membrane potential (MP) dye. Cells were carried in growth media containing 90% DMEM, 10% FBS, 250 mcg/mL G418 and 1 mcg/mL puromycin for no more than 15 passages.
Prior to testing, cells were counted and dispensed at 14,000 cells per well (Y1, Y4 and Y5) or 28,000 cells per well (Y2) into black 384 well Poly-D-Lysine plates at 20 mcL per well. Covered plates were then incubated at room temperature for 30 minutes followed by an overnight incubation at 37° C. in 5% C02. The following day, media was removed and wells were washed once with 40 mcL Dulbecco's phosphate buffered saline. […] Ten microliters of experimental peptide or peptide standard was added in triplicate to wells and incubated for 50 minutes at room temperature in the dark. Following this incubation step, plates were read again as before (final read).
NPY receptor activation, leading to a reduction in intracellular cAMP levels, is detected as a decrease in isoproteranol induced fluorescent signal. Peptide standard and experimental values were initially transformed in excel using the formula: final read/initial read. […] Normalized data was analyzed from triplicate tests and used to estimate the EC50 for each test peptide on each receptor. Data was fit in GraphPad Prism software (v8.2.1) using a 3-parameter logistic curve model: Y=Bottom+(Top−Bottom)/(1+10^((LogEC50−X))). EC50 values were converted to pEC50 values using the formula: pEC50=−Log(EC50).

human Y2 receptor = molecular target: T2, human Y2 receptor (Homo sapiens, UniProt P49146); assay: as above; assay type: cell-based; conditions: NPY2R pEC50, HEK-CNG cells; standard PYY(3-36); species (human or rat) not given
T2 sequence (P49146 1-381): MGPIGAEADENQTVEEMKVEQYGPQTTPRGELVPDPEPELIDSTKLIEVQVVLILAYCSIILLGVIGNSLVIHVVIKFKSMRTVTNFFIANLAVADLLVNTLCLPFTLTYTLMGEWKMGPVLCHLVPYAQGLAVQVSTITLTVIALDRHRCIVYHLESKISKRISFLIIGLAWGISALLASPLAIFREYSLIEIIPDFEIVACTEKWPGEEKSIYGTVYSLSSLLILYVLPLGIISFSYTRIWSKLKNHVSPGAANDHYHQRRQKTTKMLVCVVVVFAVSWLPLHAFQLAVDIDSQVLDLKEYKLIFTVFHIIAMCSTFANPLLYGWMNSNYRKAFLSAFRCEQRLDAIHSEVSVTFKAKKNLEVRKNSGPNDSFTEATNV
Procedure, shortened: (§1)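 HEK-CNG cells stably expressing each human receptor; peptides added in triplicate for 50 minutes at room temperature, with agonism read as decreased isoproterenol-induced membrane potential dye signal (final/initial read).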

human Y5 receptor = molecular target: T3, human Y5 receptor (Homo sapiens, UniProt Q15761); assay: as above; assay type: cell-based; conditions: NPY5R pEC50, HEK-CNG cells; standard NPY; species (human or rat) not given
T3 sequence (Q15761 1-445): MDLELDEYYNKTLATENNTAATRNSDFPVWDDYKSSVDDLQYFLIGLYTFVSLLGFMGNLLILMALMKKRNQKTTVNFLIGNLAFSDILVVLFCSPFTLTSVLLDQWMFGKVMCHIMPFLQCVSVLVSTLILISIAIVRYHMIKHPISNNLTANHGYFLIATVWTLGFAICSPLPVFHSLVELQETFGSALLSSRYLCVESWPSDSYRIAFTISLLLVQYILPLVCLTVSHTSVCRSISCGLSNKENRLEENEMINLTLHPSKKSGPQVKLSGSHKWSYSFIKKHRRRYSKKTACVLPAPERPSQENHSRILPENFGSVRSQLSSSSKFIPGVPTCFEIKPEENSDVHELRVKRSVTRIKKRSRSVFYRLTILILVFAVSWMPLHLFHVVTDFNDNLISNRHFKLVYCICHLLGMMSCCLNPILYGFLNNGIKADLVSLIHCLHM
Procedure, shortened: as §1

Row | Structure (SMILES) | Solubility (in Water, RT) [1] [mg/mL] | Stability (37° C./RT, T0: Mar. 25, 2020) [2] | pEC50 (human Y1 receptor) | pEC50 (human Y2 receptor) | pEC50 (human Y5 receptor)
1 | CC(C)C[C@H](NC(=O)[C@H](CC(=O)O)NC(=O)[C@@H]1CCCCNC(=O)CC[C@H](NC(=O)[C@H](Cc2c[nH]c3ccccc23)NC(=O)[C@H](CCC(=O)O)NC(=O)[C@H](CCCCN)NC(=O)[C@@H]2CCCN2C(=O)[C@H](CO)NC(=O)[C@H](C)NC(=O)[C@H](CC(=O)O)NC(=O)[C@H](CCCCNC(=O)CC[C@H](NC(=O)CC[C@H](NC(=O)CCCCCCCCCCCCCCCCCC(=O)O)C(=O)O)C(=O)O)NC(=O)CNC(=O)[C@@H]2CCCN2C(=O)[C@H](CCCCN)NC(=O)[C@H](CCC(=O)O)NC(=O)[C@@H]2CCCN2C(=O)[C@H](CCCCN)NC(=O)[C@@H]2CCCN2)C(=O)N[C@@H](CCCNC(=N)N)C(=O)N[C@@H](Cc2ccc(O)cc2)C(=O)N[C@@H](Cc2ccc(O)cc2)C(=O)N1)C(=O)N[C@@H](CCCNC(=N)N)C(=O)N[C@@H](Cc1c[nH]cn1)C(=O)N[C@@H](Cc1ccc(O)cc1)C(=O)N[C@@H](CC(C)C)C(=O)N[C@@H](CC(N)=O)C(=O)N[C@@H](Cc1c[nH]c2ccccc12)C(=O)N[C@@H](CC(C)C)C(=O)N[C@H](C(=O)N[C@@H](CCCNC(=N)N)C(=O)N[C@@H](CCC(N)=O)C(=O)N[C@@H](CCCNC(=N)N)C(=O)N[C@@H](Cc1ccccc1)C(N)=O)[C@@H](C)O [Compound A39] (H-PKPEKPGK([γGlu-γGlu-C19 diacid])DASPKEWERYYKDLRHYLNWLTRQRF-NH2; lactam 16-20; N-terminus assumed) | 16 | 95.9 | – | – | –
2 | CC(C)C[C@H](NC(=O)[C@H](CC(=O)O)NC(=O)[C@@H]1CCCCNC(=O)C[C@H](NC(=O)[C@H](Cc2c[nH]c3ccccc23)NC(=O)[C@H](CCC(=O)O)NC(=O)[C@H](CCCCN)NC(=O)[C@@H]2CCCN2C(=O)[C@H](CO)NC(=O)[C@H](C)NC(=O)[C@H](CC(=O)O)NC(=O)[C@H](CCCCNC(=O)CC[C@H](NC(=O)CC[C@H](NC(=O)CCCCCCCCCCCCCCCCCC(=O)O)C(=O)O)C(=O)O)NC(=O)CNC(=O)[C@@H]2CCCN2C(=O)[C@H](CCCCN)NC(=O)[C@H](CCC(=O)O)NC(=O)[C@@H]2CCCN2C(=O)[C@H](CCCCN)NC(=O)[C@@H]2CCCN2)C(=O)N[C@@H](CCCNC(=N)N)C(=O)N[C@@H](Cc2ccc(O)cc2)C(=O)N[C@@H](Cc2ccc(O)cc2)C(=O)N1)C(=O)N[C@@H](CCCNC(=N)N)C(=O)N[C@@H](Cc1c[nH]cn1)C(=O)N[C@@H](Cc1ccc(O)cc1)C(=O)N[C@@H](CC(C)C)C(=O)N[C@@H](CC(N)=O)C(=O)N[C@@H](Cc1c[nH]c2ccccc12)C(=O)N[C@@H](CC(C)C)C(=O)N[C@H](C(=O)N[C@@H](CCCNC(=N)N)C(=O)N[C@@H](CCC(N)=O)C(=O)N[C@@H](CCCNC(=N)N)C(=O)N[C@@H](Cc1ccccc1)C(N)=O)[C@@H](C)O [Compound A40] | 27 | 98.1 | – | – | –
3 | CC(C)C[C@H](NC(=O)[C@H](CC(=O)O)NC(=O)[C@H](CCCCN)NC(=O)[C@H](Cc1ccc(O)cc1)NC(=O)[C@H](Cc1ccc(O)cc1)NC(=O)[C@H](CCCNC(=N)N)NC(=O)[C@H](CC(N)=O)NC(=O)[C@H](Cc1c[nH]c2ccccc12)NC(=O)[C@H](CCC(=O)O)NC(=O)[C@H](CCCCN)NC(=O)[C@@H]1CCCN1C(=O)[C@H](CO)NC(=O)[C@H](C)NC(=O)[C@H](CC(=O)O)NC(=O)[C@H](CCC(=O)O)NC(=O)CNC(=O)[C@@H]1CCCN1C(=O)[C@H](CCCCNC(=O)CC[C@H](NC(=O)CC[C@H](NC(=O)CCCCCCCCCCCCCCCCCCC(=O)O)C(=O)O)C(=O)O)NC(=O)[C@H](CCC(=O)O)NC(=O)[C@@H]1CCCN1C(=O)[C@H](CCCCN)NC(=O)[C@@H]1CCCN1)C(=O)N[C@@H](CCCNC(=N)N)C(=O)N[C@@H](Cc1c[nH]cn1)C(=O)N[C@@H](Cc1ccc(O)cc1)C(=O)N[C@@H](CC(C)C)C(=O)N[C@@H](CC(N)=O)C(=O)N[C@@H](Cc1c[nH]c2ccccc12)C(=O)N[C@@H](CC(C)C)C(=O)N[C@H](C(=O)N[C@@H](CCCNC(=N)N)C(=O)N[C@@H](CCC(N)=O)C(=O)N[C@@H](CCCNC(=N)N)C(=O)N[C@@H](Cc1ccccc1)C(N)=O)[C@@H](C)O [Compound A72] | – | – | 9.00 | 10.80 | 8.80
4 | CC(C)C[C@H](NC(=O)[C@H](CC(=O)O)NC(=O)[C@H](CCCCN)NC(=O)[C@H](Cc1ccc(O)cc1)NC(=O)[C@H](Cc1ccc(O)cc1)NC(=O)[C@H](CCCNC(=N)N)NC(=O)[C@H](CC(N)=O)NC(=O)[C@H](Cc1c[nH]c2ccccc12)NC(=O)[C@H](CCC(=O)O)NC(=O)[C@H](CCC(=O)O)NC(=O)[C@@H]1CCCN1C(=O)[C@H](CO)NC(=O)[C@H](C)NC(=O)[C@H](CC(=O)O)NC(=O)[C@H](CCCCNC(=O)CC[C@H](NC(=O)CC[C@H](NC(=O)CCCCCCCCCCCCCCCCCCC(=O)O)C(=O)O)C(=O)O)NC(=O)CNC(=O)[C@@H]1CCCN1C(=O)[C@H](CCCCN)NC(=O)[C@H](CCC(=O)O)NC(=O)[C@@H]1CCCN1C(=O)[C@H](CCCCN)NC(=O)[C@@H]1CCCN1)C(=O)N[C@@H](CCCNC(=N)N)C(=O)N[C@@H](Cc1c[nH]cn1)C(=O)N[C@@H](Cc1ccc(O)cc1)C(=O)N[C@@H](CC(C)C)C(=O)N[C@@H](CC(N)=O)C(=O)N[C@@H](Cc1c[nH]c2ccccc12)C(=O)N[C@@H](CC(C)C)C(=O)N[C@H](C(=O)N[C@@H](CCCNC(=N)N)C(=O)N[C@@H](CCC(N)=O)C(=O)N[C@@H](CCCNC(=N)N)C(=O)N[C@@H](Cc1ccccc1)C(N)=O)[C@@H](C)O [Compound A74] | – | – | 9.30 | 10.30 | 9.00
